# In article PMC4450297, “Screening Active Compounds from Garcinia Species Native to China Reveals Novel Compounds Targeting the STAT/JAK Signaling Pathway” (BioMed Research International, 2015):
# What was measured:
# Experiment in all cases: Cell panel screen (CellTiter-Glo)
# Type in all cases: cell-based, human
# M059J = M059J (Brain), 20 micromolar, 72 hrs
# Outline: (§1)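 Growth inhibition (%) was determined from luminescence proportional to cellular ATP after cells had been incubated with compound (20 μM final) for 72 h at 37°C, with matched DMSO controls and cell-free wells defining the range.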
# NCI-H2347 = NCI-H2347 (Lung), 20 micromolar, 72 hrs
# Outline: as §1
# HCC1937 = HCC1937 (Breast), 20 micromolar, 72 hrs
# Outline: as §1
# NCI-H28 = NCI-H28 (Lung), 20 micromolar, 72 hrs
# Outline: as §1
# NCI-H2405 = NCI-H2405 (Lung), 20 micromolar, 72 hrs
# Outline: as §1
# HT-1197 = HT-1197 (Urinary bladder), 20 micromolar, 72 hrs
# Outline: as §1
# A704 = A704 (Kidney), 20 micromolar, 72 hrs
# Outline: as §1
# C8166 = C8166 (Leukemia), 20 micromolar, 72 hrs
# Outline: as §1
# NCI-H524 = NCI-H524 (Lung), 20 micromolar, 72 hrs
# Outline: as §1
# SW13 = SW13 (Adrenal gland), 20 micromolar, 72 hrs
# Outline: as §1
# TCCSUP = TCCSUP (Urinary bladder), 20 micromolar, 72 hrs
# Outline: as §1
# ZR-75-30 = ZR-75-30 (Breast), 20 micromolar, 72 hrs
# Outline: as §1
# J82 = J82 (Urinary bladder), 20 micromolar, 72 hrs
# Outline: as §1
# MSTO-211-H = MSTO-211-H (Lung), 20 micromolar, 72 hrs
# Outline: as §1
# CW-2 = CW-2 (Colon), 20 micromolar, 72 hrs
# Outline: as §1
# HPAF-II = HPAF-II (Pancreas), 20 micromolar, 72 hrs
# Outline: as §1
# RL95 = RL95 (Uterus), 20 micromolar, 72 hrs
# Outline: as §1
# HCC1395 = HCC1395 (Breast), 20 micromolar, 72 hrs
# Outline: as §1
# ChaGo-K-1 = ChaGo-K-1 (Lung), 20 micromolar, 72 hrs
# Outline: as §1
# NCI-H1694 = NCI-H1694 (Lung), 20 micromolar, 72 hrs
# Outline: as §1
# BT-474 = BT-474 (Breast), 20 micromolar, 72 hrs
# Outline: as §1
# HCC1569 = HCC1569 (Breast), 20 micromolar, 72 hrs
# Outline: as §1
# HGC-27 = HGC-27 (Stomach), 20 micromolar, 72 hrs
# Outline: as §1
# Bel-7402 = Bel-7402 (Liver), 20 micromolar, 72 hrs
# Outline: as §1
# BT-549 = BT-549 (Breast), 20 micromolar, 72 hrs
# Outline: as §1
# A498 = A498 (listed under Lung), 20 micromolar, 72 hrs
# Outline: as §1
# Panc 03.27 = Panc 03.27 (Pancreas), 20 micromolar, 72 hrs
# Outline: as §1
# CCF-STTG1 = CCF-STTG1 (Brain), 20 micromolar, 72 hrs
# Outline: as §1
# HCC1599 = HCC1599 (Breast), 20 micromolar, 72 hrs
# Outline: as §1
# T98G = T98G (Brain), 20 micromolar, 72 hrs
# Outline: as §1
# T47D = T47D (Breast), 20 micromolar, 72 hrs
# Outline: as §1
# HEC-1-A = HEC-1-A (Uterus), 20 micromolar, 72 hrs
# Outline: as §1
# C3A = C3A (Liver), 20 micromolar, 72 hrs
# Outline: as §1
# NCI-H1770 = NCI-H1770 (Lung), 20 micromolar, 72 hrs
# Outline: as §1
# Colo 205 = conditions: Colo 205, 20 micromolar, 72 hrs
# Outline: as §1
# NCI-H1623 = NCI-H1623 (Lung), 20 micromolar, 72 hrs
# Outline: as §1
Structure (SMILES),Percent Inhibition (M059J) [%],Percent Inhibition (NCI-H2347) [%],Percent Inhibition (HCC1937) [%],Percent Inhibition (NCI-H28) [%],Percent Inhibition (NCI-H2405) [%],Percent Inhibition (HT-1197) [%],Percent Inhibition (A704) [%],Percent Inhibition (C8166) [%],Percent Inhibition (NCI-H524) [%],Percent Inhibition (SW13) [%],Percent Inhibition (TCCSUP) [%],Percent Inhibition (ZR-75-30) [%],Percent Inhibition (J82) [%],Percent Inhibition (MSTO-211-H) [%],Percent Inhibition (CW-2) [%],Percent Inhibition (HPAF-II) [%],Percent Inhibition (RL95) [%],Percent Inhibition (HCC1395) [%],Percent Inhibition (ChaGo-K-1) [%],Percent Inhibition (NCI-H1694) [%],also measured
"CC(C)=CCc1c(O)cc2oc3cc(O)c(O)c(CCC(C)(C)O)c3c(=O)c2c1O [bn-16, Garcinone C]",78,73,80,71,73,85,62,88,98,96,88,94,85,93,95,75,69,94,91,99,Percent Inhibition (BT-474): 83%; Percent Inhibition (HCC1569): 81%; Percent Inhibition (HGC-27): 77%; Percent Inhibition (Bel-7402): 91%; Percent Inhibition (BT-549): 74%; Percent Inhibition (A498): 65%; Percent Inhibition (Panc 03.27): 86%; Percent Inhibition (CCF-STTG1): 65%; Percent Inhibition (HCC1599): 94%; Percent Inhibition (T98G): 91%; Percent Inhibition (T47D): 62%; Percent Inhibition (HEC-1-A): 61%; Percent Inhibition (C3A): 43%; Percent Inhibition (NCI-H1770): 87%; Percent Inhibition (Colo 205): 97%; Percent Inhibition (NCI-H1623): 67%
"C=C(C)C(O)Cc1c(O)cc2oc3cc(O)c(O)c(CC=C(C)C)c3c(=O)c2c1O (stereo not drawn) [bn-17, Bannaxanthone B]",48,23,58,69,7,44,19,71,-19,52,79,81,52,70,68,14,45,83,73,96,Percent Inhibition (BT-474): 27%; Percent Inhibition (HCC1569): 51%; Percent Inhibition (HGC-27): 62%; Percent Inhibition (Bel-7402): 57%; Percent Inhibition (BT-549): 34%; Percent Inhibition (A498): 54%; Percent Inhibition (Panc 03.27): 44%; Percent Inhibition (CCF-STTG1): 43%; Percent Inhibition (HCC1599): 84%; Percent Inhibition (T98G): 94%; Percent Inhibition (T47D): 45%; Percent Inhibition (HEC-1-A): 46%; Percent Inhibition (C3A): 39%; Percent Inhibition (NCI-H1770): 12%; Percent Inhibition (Colo 205): 57%; Percent Inhibition (NCI-H1623): 20%
COc1c(CC=C(C)C)cc2c(=O)c3c(O)cc(O)cc3oc2c1OC [gl-6],44,22,32,39,25,36,27,41,9,18,36,90,52,16,51,36,46,44,59,46,Percent Inhibition (BT-474): 25%; Percent Inhibition (HCC1569): 34%; Percent Inhibition (HGC-27): 55%; Percent Inhibition (Bel-7402): 27%; Percent Inhibition (BT-549): 14%; Percent Inhibition (A498): 47%; Percent Inhibition (Panc 03.27): 45%; Percent Inhibition (CCF-STTG1): 45%; Percent Inhibition (HCC1599): 42%; Percent Inhibition (T98G): 31%; Percent Inhibition (T47D): 31%; Percent Inhibition (HEC-1-A): 40%; Percent Inhibition (C3A): 41%; Percent Inhibition (NCI-H1770): 23%; Percent Inhibition (Colo 205): 43%; Percent Inhibition (NCI-H1623): 14%
